{
  "source": "ChEMBL document CHEMBL4385643",
  "about": "“Design of a brain-penetrant CDK4/6 inhibitor for glioblastoma” (Bioorg Med Chem Lett, 2019)",
  "key": {"[1]": {"target": "Tyrosine-protein kinase BTK (Homo sapiens) (UniProt Q06187)", "test": "Inhibition of recombinant full length human His-tagged BTK expressed in baculovirus expression system at 0.1 uM using tyrosine-1 peptide as substrate incubated for 60 mins by Z'-LYTE assay relative to control"}, "[2]": {"target": "CDK7/Cyclin H/MNAT1 (Homo sapiens) (UniProt P51946+P50613+P51948)", "test": "Inhibition of recombinant full length human His-tagged CDK7/CyclinH/MAT1 expressed in baculovirus expression system at 0.1 uM using CDK7/9tide peptide as substrate incubated for 60 mins by Adapta assay relative to control"}, "[3]": {"target": "Casein kinase I isoform gamma-2 (Homo sapiens) (UniProt P78368)", "test": "Inhibition of recombinant full length human His-tagged CK1 gamma 2 expressed in baculovirus expression system at 0.1 uM using serine/threonine-5 peptide as substrate incubated for 60 mins by Z'-LYTE assay relative to control"}, "[4]": {"target": "Calcium/calmodulin-dependent protein kinase type 1D (Homo sapiens) (UniProt Q8IU85)", "sequence (Q8IU85 whole entry, looked up)": "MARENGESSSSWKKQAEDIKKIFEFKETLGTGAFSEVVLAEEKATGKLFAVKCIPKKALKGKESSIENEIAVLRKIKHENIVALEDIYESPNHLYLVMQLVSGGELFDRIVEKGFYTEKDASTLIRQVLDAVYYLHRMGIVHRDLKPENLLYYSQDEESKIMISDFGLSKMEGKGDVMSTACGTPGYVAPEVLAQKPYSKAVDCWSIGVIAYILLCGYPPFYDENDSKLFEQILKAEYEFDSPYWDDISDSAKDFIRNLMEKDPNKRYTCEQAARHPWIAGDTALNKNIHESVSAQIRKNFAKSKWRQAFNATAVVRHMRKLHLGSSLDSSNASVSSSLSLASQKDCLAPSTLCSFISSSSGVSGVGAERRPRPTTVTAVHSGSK", "test": "Inhibition of recombinant full length human His-tagged CAMK1delta expressed in baculovirus expression system at 0.1 uM using serine/threonine-25 peptide as substrate incubated for 60 mins by Z'-LYTE assay relative to control"}, "[5]": {"target": "Calcium/calmodulin-dependent protein kinase type IV (Homo sapiens) (UniProt Q16566)", "sequence (Q16566 whole entry)": "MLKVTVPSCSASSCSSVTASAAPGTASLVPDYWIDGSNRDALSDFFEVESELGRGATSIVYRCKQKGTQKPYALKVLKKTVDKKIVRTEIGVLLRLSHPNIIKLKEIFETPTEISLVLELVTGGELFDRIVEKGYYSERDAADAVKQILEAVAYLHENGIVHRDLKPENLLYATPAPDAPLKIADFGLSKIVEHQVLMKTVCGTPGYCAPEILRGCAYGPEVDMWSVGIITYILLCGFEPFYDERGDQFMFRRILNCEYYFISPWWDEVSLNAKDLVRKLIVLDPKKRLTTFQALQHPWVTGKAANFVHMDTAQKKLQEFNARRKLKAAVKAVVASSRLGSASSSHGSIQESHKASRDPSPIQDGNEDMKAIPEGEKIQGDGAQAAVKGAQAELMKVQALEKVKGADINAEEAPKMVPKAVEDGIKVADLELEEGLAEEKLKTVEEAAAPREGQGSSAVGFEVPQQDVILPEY", "test": "Inhibition of recombinant full length human full length GST-tagged CAMK4 expressed in Escherichia coli expression system at 0.1 uM using serine/threonine-13 peptide as substrate incubated for 60 mins by Z'-LYTE assay relative to control"}, "[6]": {"target": "Focal adhesion kinase 1 (Homo sapiens) (UniProt Q05397)", "test": "Inhibition of recombinant full length human GST-tagged FAK expressed in baculovirus expression system at 0.1 uM using tyrosine-7 peptide as substrate incubated for 60 mins by Z'-LYTE assay relative to control"}, "[7]": {"target": "Fibroblast growth factor receptor 1 (Homo sapiens) (UniProt P11362)", "test": "Inhibition of recombinant human His-tagged FGFR1 catalytic domain (308 to 731 residues) expressed in baculovirus expression system at 0.1 uM using tyrosine-4 peptide as substrate incubated for 60 mins by Z'-LYTE assay relative to control"}, "[8]": {"target": "Tyrosine-protein kinase Fgr (Homo sapiens) (UniProt P09769)", "test": "Inhibition of recombinant full length human His-tagged FGR expressed in baculovirus expression system at 0.1 uM using tyrosine-2 peptide as substrate incubated for 60 mins by Z'-LYTE assay relative to control"}, "[9]": {"target": "Leukocyte tyrosine kinase receptor (Homo sapiens) (UniProt P29376)", "sequence (P29376 whole entry, the tested form may be a part)": "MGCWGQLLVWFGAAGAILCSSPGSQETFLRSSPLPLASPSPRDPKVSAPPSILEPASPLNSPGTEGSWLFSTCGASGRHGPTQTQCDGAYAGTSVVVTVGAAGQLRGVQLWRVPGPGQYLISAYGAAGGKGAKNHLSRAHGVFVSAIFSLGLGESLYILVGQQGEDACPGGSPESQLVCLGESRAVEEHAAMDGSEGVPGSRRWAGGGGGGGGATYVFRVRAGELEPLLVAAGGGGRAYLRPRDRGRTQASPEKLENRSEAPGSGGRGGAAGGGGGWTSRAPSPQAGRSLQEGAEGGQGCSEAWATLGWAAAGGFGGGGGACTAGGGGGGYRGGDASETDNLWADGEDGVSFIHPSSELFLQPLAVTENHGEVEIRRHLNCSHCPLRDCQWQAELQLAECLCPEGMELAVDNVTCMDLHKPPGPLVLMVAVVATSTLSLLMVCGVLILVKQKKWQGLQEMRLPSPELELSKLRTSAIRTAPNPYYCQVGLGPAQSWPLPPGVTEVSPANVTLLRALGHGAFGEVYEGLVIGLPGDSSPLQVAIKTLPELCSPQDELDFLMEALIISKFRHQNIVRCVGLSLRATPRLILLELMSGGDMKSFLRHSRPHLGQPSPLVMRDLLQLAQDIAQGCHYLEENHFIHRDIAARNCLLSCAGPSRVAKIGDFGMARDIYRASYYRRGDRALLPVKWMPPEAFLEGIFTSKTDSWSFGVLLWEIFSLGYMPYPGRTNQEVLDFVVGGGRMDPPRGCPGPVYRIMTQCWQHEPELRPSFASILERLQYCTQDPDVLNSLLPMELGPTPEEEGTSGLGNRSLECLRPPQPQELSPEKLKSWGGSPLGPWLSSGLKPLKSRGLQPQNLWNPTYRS", "test": "Inhibition of recombinant human GST-tagged LTK (450 to 864 residues) expressed in baculovirus expression system at 0.1 uM using tyrosine-6 peptide as substrate incubated for 60 mins by Z'-LYTE assay relative to control"}, "[10]": {"target": "Tyrosine-protein kinase Lyn (Homo sapiens) (UniProt P07948)", "test": "Inhibition of recombinant full length human LYN at 0.1 uM using tyrosine-2 peptide as substrate incubated for 60 mins by Z'-LYTE assay relative to control"}, "[11]": {"target": "Serine/threonine-protein kinase MRCK alpha (Homo sapiens) (UniProt Q5VT25)", "test": "Inhibition of recombinant human His-tagged MRCKalpha catalytic domain (1 to 473 residues) expressed in baculovirus expression system at 0.1 uM using serine/threonine-13 peptide as substrate incubated for 60 mins by Z'-LYTE assay relative to control"}, "[12]": {"target": "Serine/threonine-protein kinase 24 (Homo sapiens) (UniProt Q9Y6E0)", "test": "Inhibition of recombinant full length human GST-tagged MST3 expressed in baculovirus expression system at 0.1 uM using serine/threonine-7 peptide as substrate incubated for 60 mins by Z'-LYTE assay relative to control"}, "[13]": {"target": "Serine/threonine-protein kinase PAK 4 (Homo sapiens) (UniProt O96013)", "sequence (O96013 whole entry, looked up, the tested form may be a part)": "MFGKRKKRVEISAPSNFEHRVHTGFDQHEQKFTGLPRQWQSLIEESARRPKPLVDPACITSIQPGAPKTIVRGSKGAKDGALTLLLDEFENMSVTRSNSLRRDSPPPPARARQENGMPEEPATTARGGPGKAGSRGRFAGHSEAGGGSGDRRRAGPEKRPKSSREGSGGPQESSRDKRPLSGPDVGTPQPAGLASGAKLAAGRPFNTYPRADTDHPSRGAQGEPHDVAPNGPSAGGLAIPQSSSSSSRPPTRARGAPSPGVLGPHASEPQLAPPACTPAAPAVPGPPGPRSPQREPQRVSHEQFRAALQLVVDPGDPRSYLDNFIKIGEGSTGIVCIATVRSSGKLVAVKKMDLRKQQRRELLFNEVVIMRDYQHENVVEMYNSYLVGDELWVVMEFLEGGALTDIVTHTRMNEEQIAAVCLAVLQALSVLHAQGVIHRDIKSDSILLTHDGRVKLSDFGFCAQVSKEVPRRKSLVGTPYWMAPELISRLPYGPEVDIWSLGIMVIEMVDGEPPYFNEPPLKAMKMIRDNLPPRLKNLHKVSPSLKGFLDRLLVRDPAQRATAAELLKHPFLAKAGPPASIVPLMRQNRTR", "test": "Inhibition of recombinant human GST-tagged PAK4 catalytic domain (295 to 591 residues) expressed in baculovirus expression system at 0.1 uM using serine/threonine-20 peptide as substrate incubated for 60 mins by Z'-LYTE assay relative to control"}, "[14]": {"target": "Protein kinase C alpha type (Homo sapiens) (UniProt P17252)", "test": "Inhibition of recombinant human GST-tagged PKCalpha expressed in insect expression system at 0.1 uM using serine/threonine-7 peptide as substrate incubated for 60 mins by Z'-LYTE assay relative to control"}, "[15]": {"target": "Protein kinase C delta type (Homo sapiens) (UniProt Q05655)", "sequence (Q05655 whole entry, looked up)": "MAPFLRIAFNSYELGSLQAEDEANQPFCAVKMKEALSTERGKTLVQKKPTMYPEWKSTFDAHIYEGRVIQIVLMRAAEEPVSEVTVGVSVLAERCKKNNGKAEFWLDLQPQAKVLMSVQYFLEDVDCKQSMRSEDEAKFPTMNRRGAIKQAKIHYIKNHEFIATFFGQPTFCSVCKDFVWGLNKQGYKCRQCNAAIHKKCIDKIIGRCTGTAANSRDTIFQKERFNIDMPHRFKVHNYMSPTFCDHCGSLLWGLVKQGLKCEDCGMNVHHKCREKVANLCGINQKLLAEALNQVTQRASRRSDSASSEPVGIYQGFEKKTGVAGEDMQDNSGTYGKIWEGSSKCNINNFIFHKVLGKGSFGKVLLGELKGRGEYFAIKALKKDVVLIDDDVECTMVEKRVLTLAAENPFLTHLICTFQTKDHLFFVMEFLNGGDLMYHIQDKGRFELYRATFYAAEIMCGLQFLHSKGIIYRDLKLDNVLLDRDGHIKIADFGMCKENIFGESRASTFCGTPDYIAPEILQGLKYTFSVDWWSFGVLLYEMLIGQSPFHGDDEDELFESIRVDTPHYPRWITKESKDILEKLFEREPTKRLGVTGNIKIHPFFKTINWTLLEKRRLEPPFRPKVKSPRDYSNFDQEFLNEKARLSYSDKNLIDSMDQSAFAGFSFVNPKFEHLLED", "test": "Inhibition of recombinant full length human GST-tagged PKCdelta expressed in insect expression system at 0.1 uM using serine/threonine-7 peptide as substrate incubated for 60 mins by Z'-LYTE assay relative to control"}, "[16]": {"target": "Serine/threonine-protein kinase D1 (Homo sapiens) (UniProt Q15139)", "test": "Inhibition of recombinant full length human GST-tagged PKD1 expressed in baculovirus expression system at 0.1 uM using serine/threonine-17 peptide as substrate incubated for 60 mins by Z'-LYTE assay relative to control"}, "[17]": {"target": "Serine/threonine-protein kinase PLK3 (Homo sapiens) (UniProt Q9H4B4)", "test": "Inhibition of recombinant human GST-tagged PLK3 catalytic domain (58 to 340 residues) expressed in baculovirus expression system at 0.1 uM using serine/threonine-16 peptide as substrate incubated for 60 mins by Z'-LYTE assay relative to control"}, "[18]": {"target": "Receptor-interacting serine/threonine-protein kinase 2 (Homo sapiens) (UniProt O43353)", "test": "Inhibition of tracer 178 binding to recombinant human His-tagged RIPK2 catalytic domain (1 to 299 residues) expressed in baculovirus expression system at 0.1 uM measured after 60 mins by Lanthascreen assay relative to control"}, "[19]": {"target": "Rho-associated protein kinase 1 (Homo sapiens) (UniProt Q13464)", "sequence (Q13464 2-1354 limits assumed)": "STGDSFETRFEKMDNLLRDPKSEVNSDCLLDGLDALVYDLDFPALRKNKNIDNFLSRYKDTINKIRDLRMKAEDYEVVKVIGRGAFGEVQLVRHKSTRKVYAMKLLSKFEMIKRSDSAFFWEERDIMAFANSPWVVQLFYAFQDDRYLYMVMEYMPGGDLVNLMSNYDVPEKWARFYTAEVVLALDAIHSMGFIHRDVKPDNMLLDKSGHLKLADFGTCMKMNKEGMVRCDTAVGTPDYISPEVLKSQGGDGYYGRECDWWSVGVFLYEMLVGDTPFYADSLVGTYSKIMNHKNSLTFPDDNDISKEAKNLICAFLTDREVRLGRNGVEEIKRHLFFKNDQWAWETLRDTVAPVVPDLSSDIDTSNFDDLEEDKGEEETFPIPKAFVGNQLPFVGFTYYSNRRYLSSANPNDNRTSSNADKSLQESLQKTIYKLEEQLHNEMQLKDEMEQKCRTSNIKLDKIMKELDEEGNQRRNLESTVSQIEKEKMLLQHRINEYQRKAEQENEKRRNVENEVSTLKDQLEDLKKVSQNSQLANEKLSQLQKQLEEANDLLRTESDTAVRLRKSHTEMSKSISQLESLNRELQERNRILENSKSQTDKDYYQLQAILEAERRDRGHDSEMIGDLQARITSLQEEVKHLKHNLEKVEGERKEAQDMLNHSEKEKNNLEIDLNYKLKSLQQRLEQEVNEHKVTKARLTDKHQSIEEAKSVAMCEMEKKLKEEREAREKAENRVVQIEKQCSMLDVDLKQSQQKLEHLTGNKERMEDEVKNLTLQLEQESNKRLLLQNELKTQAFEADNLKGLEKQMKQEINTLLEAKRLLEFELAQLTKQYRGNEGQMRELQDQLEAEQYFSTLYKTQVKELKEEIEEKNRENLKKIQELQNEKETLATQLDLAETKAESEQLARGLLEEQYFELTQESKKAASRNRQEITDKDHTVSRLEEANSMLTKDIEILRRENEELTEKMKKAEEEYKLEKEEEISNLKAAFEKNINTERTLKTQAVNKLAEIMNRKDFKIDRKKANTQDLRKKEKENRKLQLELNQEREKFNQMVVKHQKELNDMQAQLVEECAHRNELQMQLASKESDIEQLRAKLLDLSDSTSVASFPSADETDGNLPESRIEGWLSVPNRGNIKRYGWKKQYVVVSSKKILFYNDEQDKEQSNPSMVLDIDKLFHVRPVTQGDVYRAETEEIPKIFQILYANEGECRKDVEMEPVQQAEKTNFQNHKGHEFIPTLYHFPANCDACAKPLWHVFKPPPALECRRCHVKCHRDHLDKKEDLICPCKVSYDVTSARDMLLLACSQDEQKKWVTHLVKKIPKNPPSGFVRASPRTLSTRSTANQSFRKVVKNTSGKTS", "test": "Inhibition of recombinant human GST-tagged ROCK1 catalytic domain (1 to 535 amino acids) expressed in baculovirus expression system at 0.1 uM using serine/threonine-7 peptide as substrate incubated for 60 mins by Z'-LYTE assay relative to control"}, "[20]": {"target": "Serine/threonine-protein kinase TAO2 (Homo sapiens) (UniProt Q9UL54)", "test": "Inhibition of recombinant human GST-tagged TAO2 catalytic domain (1 to 314 residues) expressed in baculovirus expression system at 0.1 uM using serine/threonine-7 peptide as substrate incubated for 60 mins by Z'-LYTE assay relative to control"}, "[21]": {"target": "BDNF/NT-3 growth factors receptor (Homo sapiens) (UniProt Q16620)", "test": "Inhibition of recombinant human His-tagged TRKB catalytic domain (526 to 838 residues) expressed in baculovirus expression system at 0.1 uM using tyrosine-1 peptide as substrate incubated for 60 mins by Z'-LYTE assay relative to control"}, "[22]": {"target": "Mitogen-activated protein kinase 12 (Homo sapiens) (UniProt P53778)", "test": "Inhibition of recombinant full length human His-tagged p38gamma expressed in baculovirus expression system at 0.1 uM using serine/threonine-3 peptide as substrate incubated for 60 mins by Z'-LYTE assay relative to control"}, "[23]": {"target": "Ribosomal protein S6 kinase beta-1 (Homo sapiens) (UniProt P23443)", "sequence (P23443 whole entry, looked up, the tested form may be a part)": "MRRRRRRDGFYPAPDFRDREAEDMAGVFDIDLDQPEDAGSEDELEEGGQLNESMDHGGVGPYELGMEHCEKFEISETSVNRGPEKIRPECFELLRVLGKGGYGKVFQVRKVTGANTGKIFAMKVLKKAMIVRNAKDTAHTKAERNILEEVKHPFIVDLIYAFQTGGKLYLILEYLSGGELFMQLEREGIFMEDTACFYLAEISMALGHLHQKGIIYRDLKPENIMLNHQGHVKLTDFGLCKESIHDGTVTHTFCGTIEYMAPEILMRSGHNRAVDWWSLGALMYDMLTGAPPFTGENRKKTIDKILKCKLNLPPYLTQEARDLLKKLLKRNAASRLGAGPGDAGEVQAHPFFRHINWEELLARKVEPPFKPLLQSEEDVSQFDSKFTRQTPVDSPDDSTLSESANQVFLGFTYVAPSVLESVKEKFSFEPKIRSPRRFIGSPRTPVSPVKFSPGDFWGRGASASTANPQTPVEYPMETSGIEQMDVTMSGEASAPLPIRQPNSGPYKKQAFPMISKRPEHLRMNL", "test": "Inhibition of recombinant human GST-tagged p70S6K catalytic domain (1 to 421 residues) expressed in baculovirus expression system at 0.1 uM using serine/threonine-7 peptide as substrate incubated for 60 mins by Z'-LYTE assay relative to control"}},
  "data": [
    {"smiles": "CCN1CCN(Cc2ccc(Nc3ncc(F)c(-c4cc(F)c5nc(C)n(C(C)C)c5c4)n3)nc2)CC1", "note": "[ABEMACICLIB]", "values": [
      {"measurement": "inhibition", "setting": "[1]", "result": 3, "unit": "%"},
      {"measurement": "inhibition", "setting": "[2]", "result": 19.1, "unit": "%"},
      {"measurement": "inhibition", "setting": "[3]", "result": 7, "unit": "%"},
      {"measurement": "inhibition", "setting": "[4]", "result": 14, "unit": "%"},
      {"measurement": "inhibition", "setting": "[5]", "result": 2.5, "unit": "%"},
      {"measurement": "inhibition", "setting": "[6]", "result": 15.5, "unit": "%"},
      {"measurement": "inhibition", "setting": "[7]", "result": -0.4, "unit": "%"},
      {"measurement": "inhibition", "setting": "[8]", "result": 8.5, "unit": "%"},
      {"measurement": "inhibition", "setting": "[9]", "result": 10.5, "unit": "%"},
      {"measurement": "inhibition", "setting": "[10]", "result": 6, "unit": "%"},
      {"measurement": "inhibition", "setting": "[11]", "result": 31.5, "unit": "%"},
      {"measurement": "inhibition", "setting": "[12]", "result": 17, "unit": "%"},
      {"measurement": "inhibition", "setting": "[13]", "result": 1, "unit": "%"},
      {"measurement": "inhibition", "setting": "[14]", "result": 77.5, "unit": "%"},
      {"measurement": "inhibition", "setting": "[15]", "result": 48.5, "unit": "%"},
      {"measurement": "inhibition", "setting": "[16]", "result": 62.5, "unit": "%"},
      {"measurement": "inhibition", "setting": "[17]", "result": -3.5, "unit": "%"},
      {"measurement": "inhibition", "setting": "[18]", "result": 1.1, "unit": "%"},
      {"measurement": "inhibition", "setting": "[19]", "result": 18.5, "unit": "%"},
      {"measurement": "inhibition", "setting": "[20]", "result": 56, "unit": "%"},
      {"measurement": "inhibition", "setting": "[21]", "result": 14, "unit": "%"},
      {"measurement": "inhibition", "setting": "[22]", "result": 5, "unit": "%"},
      {"measurement": "inhibition", "setting": "[23]", "result": 5, "unit": "%"}
    ]},
    {"smiles": "CCN1CC2(C1)CN(c1ccc(Nc3ncc(F)c(-c4cnn5c4[C@H](C)CCCC5)n3)nc1)C2", "values": [
      {"measurement": "inhibition", "setting": "[1]", "result": 4, "unit": "%"},
      {"measurement": "inhibition", "setting": "[2]", "result": 10.5, "unit": "%"},
      {"measurement": "inhibition", "setting": "[3]", "result": 3.5, "unit": "%"},
      {"measurement": "inhibition", "setting": "[4]", "result": 13.5, "unit": "%"},
      {"measurement": "inhibition", "setting": "[5]", "result": 10, "unit": "%"},
      {"measurement": "inhibition", "setting": "[6]", "result": 19.5, "unit": "%"},
      {"measurement": "inhibition", "setting": "[7]", "result": -4, "unit": "%"},
      {"measurement": "inhibition", "setting": "[8]", "result": 7, "unit": "%"},
      {"measurement": "inhibition", "setting": "[9]", "result": 25.5, "unit": "%"},
      {"measurement": "inhibition", "setting": "[10]", "result": 7, "unit": "%"},
      {"measurement": "inhibition", "setting": "[11]", "result": 1, "unit": "%"},
      {"measurement": "inhibition", "setting": "[12]", "result": 18.5, "unit": "%"},
      {"measurement": "inhibition", "setting": "[13]", "result": 13.5, "unit": "%"},
      {"measurement": "inhibition", "setting": "[14]", "result": 33, "unit": "%"},
      {"measurement": "inhibition", "setting": "[15]", "result": 23.5, "unit": "%"},
      {"measurement": "inhibition", "setting": "[16]", "result": 98.5, "unit": "%"},
      {"measurement": "inhibition", "setting": "[17]", "result": 7.5, "unit": "%"},
      {"measurement": "inhibition", "setting": "[18]", "result": 2, "unit": "%"},
      {"measurement": "inhibition", "setting": "[19]", "result": 2, "unit": "%"},
      {"measurement": "inhibition", "setting": "[20]", "result": 12.5, "unit": "%"},
      {"measurement": "inhibition", "setting": "[21]", "result": 6.5, "unit": "%"},
      {"measurement": "inhibition", "setting": "[22]", "result": 16, "unit": "%"},
      {"measurement": "inhibition", "setting": "[23]", "result": 6, "unit": "%"}
    ]}
  ]
}
